Results reported in ChEMBL document CHEMBL1139522, “Methyl pyropheophorbide-a analogues: potential fluorescent probes for the peripheral-type benzodiazepine receptor. Effect of central metal in photosensitizing efficacy” (J Med Chem, 2005).

Assays:
[1] = Displacement of [3H]PK11195 from peripheral benzodiazepine receptor
[2] = species: Mus musculus; experiment: In vitro photodynamic therapy efficacy (0.06 uM) in RIF tumor cells using MTT assay; expressed as light dose; assay type: functional
[3] = species: Mus musculus; experiment: In vitro photodynamic therapy efficacy (1.0 uM) in RIF tumor cells using MTT assay; expressed as light dose; assay type: functional

Structure (SMILES) | IC50 [1] [µM] | LD50 [2] [J/cm2] | LD50 [3]
CCCCCCOC(C)C1=C(C)c2cc3nc(c4c5[nH]c(cc6[nH]c(cc1n2)c(C)c6CC)c(C)c5C(=O)C4)[C@@H](CCC(=O)OC)[C@@H]3C (stereo partly drawn) | 17 | 0.43 | 
C=Cc1c(C)c2[n]3c1=CC1=[N+]4C(=Cc5c(C)c6c7[n]5[Zn-2]34[N+]3=C(C=2)[C@@H](C)[C@H](CCC(=O)OC)C3=C7CC6=O)C(CC)=C1C (stereo partly drawn) | 2.89 | >2 | 0.7 J/cm2
CCC(C)N(C)C(=O)c1cc2ccccc2c(-c2ccccc2Cl)n1 (stereo not drawn) [PK-11195] | 0.39 |  | 
C=Cc1c(C)c2cc3nc(c4c5nc(cc6[nH]c(cc1[nH]2)c(C)c6CC)C(C)=C5C(=O)C4)[C@@H](CCC(=O)OC)[C@@H]3C | 1.82 | >2 | Toxic
C=Cc1c(C)c2cc3nc(c4c5nc(cc6[nH]c(cc1[nH]2)c(C)c6CC)C(C)=C5C(=O)C4)[C@@H](CCC(=O)NCCCCCCNc1ccc([N+](=O)[O-])c2nonc12)[C@@H]3C | 37.1 | >2 | >2 J/cm2
O=C(Cc1c[nH]c2ccccc12)NCCCCCCNc1ccc([N+](=O)[O-])c2nonc12 | 0.32 |  | 
